Patent publication US20240092835A1, “NOVEL PEPTIDES CAPABLE OF ALTERING NK CELL ACTIVITY” (Massachusetts Institute of Technology, priority 2022, published 2024)
Where no end group is shown, it is not given here.

Assays:
Type in all cases: cell-based, human
NKG2A−/NKG2C+ NK cells = experiment: NK cell activation markers in NKG2A-/NKG2C+ NK cells incubated with peptide and K562 expressing HLA-E (activation); conditions: NKG2A-/NKG2C+ NK cells, K562/HLA-E, Trial 6
How it was run: (§1)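 Percent-positive cells for NK activation surface markers were measured after NK cells met peptide-treated K562 cells expressing HLA-E. A decrease in that fraction was scored as inhibition and an increase as activation; NKG2A−/NKG2C− cells served as controls.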

NKG2A+/NKG2C− NK cells = experiment: NK cell activation markers in NKG2A+/NKG2C- NK cells incubated with peptide and K562 expressing HLA-E (inhibition); conditions: for effect on NKG2A+/NKG2C− NK cell inhibition (in words): K562 expressing HLA-E, CD107a, IFNG, TNF, CCL3; for percentage of CCL3+ NK cells / percentage of CD107a+ NK cells / percentage of IFNG+ NK cells / percentage of TNF+ NK cells: NKG2A+/NKG2C- NK cells, K562/HLA-E
How it was run: as §1

NKG2A−/NKG2C− NK cells = experiment: NK cell activation markers in control NKG2A-/NKG2C- NK cells incubated with peptide and K562 expressing HLA-E
How it was run: as §1

TGPWRSLWI [human3, TGPWRSLWI]
percentage of IFNG+ NK cells (NKG2A−/NKG2C+ NK cells): 23.3%
percentage of TNF+ NK cells (NKG2A−/NKG2C+ NK cells): 15.8%
effect on NKG2A+/NKG2C− NK cell inhibition (in words) (NKG2A+/NKG2C− NK cells; listed as SEQ ID NO. 2): no or minimal effect
effect on NKG2A+/NKG2C− NK cell inhibition (in words) (NKG2A+/NKG2C− NK cells; listed as h3): no effect
percentage of CCL3+ NK cells (NKG2A+/NKG2C− NK cells; Trial 1): 54.6%
percentage of CD107a+ NK cells (NKG2A+/NKG2C− NK cells; Trial 1): 34.8%
percentage of IFNG+ NK cells (NKG2A+/NKG2C− NK cells; Trial 1): 15.5%
percentage of TNF+ NK cells (NKG2A+/NKG2C− NK cells; Trial 1): 6.18%
percentage of CCL3+ NK cells (NKG2A+/NKG2C− NK cells; Trial 2): 73.9%
percentage of CD107a+ NK cells (NKG2A+/NKG2C− NK cells; Trial 2): 47.2%
percentage of IFNG+ NK cells (NKG2A+/NKG2C− NK cells; Trial 2): 26.8%
percentage of TNF+ NK cells (NKG2A+/NKG2C− NK cells; Trial 2): 12.4%
percentage of CCL3+ NK cells (NKG2A+/NKG2C− NK cells; Trial 3): 55.1%
percentage of CD107a+ NK cells (NKG2A+/NKG2C− NK cells; Trial 3): 44.9%
percentage of IFNG+ NK cells (NKG2A+/NKG2C− NK cells; Trial 3): 32.1%
percentage of TNF+ NK cells (NKG2A+/NKG2C− NK cells; Trial 3): 19.7%
percentage of CCL3+ NK cells (NKG2A+/NKG2C− NK cells; Trial 4): 46.5%
percentage of CD107a+ NK cells (NKG2A+/NKG2C− NK cells; Trial 4): 37.7%
percentage of IFNG+ NK cells (NKG2A+/NKG2C− NK cells; Trial 4): 20.1%
percentage of TNF+ NK cells (NKG2A+/NKG2C− NK cells; Trial 4): 12.5%
percentage of CCL3+ NK cells (NKG2A+/NKG2C− NK cells; Trial 5): 49.6%
percentage of CD107a+ NK cells (NKG2A+/NKG2C− NK cells; Trial 5): 35.9%
percentage of IFNG+ NK cells (NKG2A+/NKG2C− NK cells; Trial 5): 19.2%
percentage of TNF+ NK cells (NKG2A+/NKG2C− NK cells; Trial 5): 9.62%
percentage of CCL3+ NK cells (NKG2A+/NKG2C− NK cells; Trial 6): 33.1%
percentage of CD107a+ NK cells (NKG2A+/NKG2C− NK cells; Trial 6): 25.7%
percentage of IFNG+ NK cells (NKG2A+/NKG2C− NK cells; Trial 6): 9.52%
percentage of TNF+ NK cells (NKG2A+/NKG2C− NK cells; Trial 6): 5.43%
percentage CCL3+ NK cells (NKG2A−/NKG2C− NK cells; Trial 1): 38.1%
percentage CD107+ NK cells (NKG2A−/NKG2C− NK cells; Trial 1): 28.9%
percentage TNF+ NK cells (NKG2A−/NKG2C− NK cells; Trial 1): 4.31%
percentage of IFNG+ NK cells (NKG2A−/NKG2C− NK cells; Trial 1): 17.2%
percentage CCL3+ NK cells (NKG2A−/NKG2C− NK cells; Trial 2): 61%
percentage CD107+ NK cells (NKG2A−/NKG2C− NK cells; Trial 2): 37.9%
percentage TNF+ NK cells (NKG2A−/NKG2C− NK cells; Trial 2): 8.81%
percentage of IFNG+ NK cells (NKG2A−/NKG2C− NK cells; Trial 2): 26.9%
percentage CCL3+ NK cells (NKG2A−/NKG2C− NK cells; Trial 3): 55.4%
percentage CD107+ NK cells (NKG2A−/NKG2C− NK cells; Trial 3): 50.4%
percentage TNF+ NK cells (NKG2A−/NKG2C− NK cells; Trial 3): 20.8%
percentage of IFNG+ NK cells (NKG2A−/NKG2C− NK cells; Trial 3): 44%
percentage CCL3+ NK cells (NKG2A−/NKG2C− NK cells; Trial 4): 36.6%
percentage CD107+ NK cells (NKG2A−/NKG2C− NK cells; Trial 4): 32.6%
percentage TNF+ NK cells (NKG2A−/NKG2C− NK cells; Trial 4): 11.3%
percentage of IFNG+ NK cells (NKG2A−/NKG2C− NK cells; Trial 4): 21.2%
percentage CCL3+ NK cells (NKG2A−/NKG2C− NK cells; Trial 5): 31%
percentage CD107+ NK cells (NKG2A−/NKG2C− NK cells; Trial 5): 26.2%
percentage TNF+ NK cells (NKG2A−/NKG2C− NK cells; Trial 5): 8.06%
percentage of IFNG+ NK cells (NKG2A−/NKG2C− NK cells; Trial 5): 19.1%
percentage CCL3+ NK cells (NKG2A−/NKG2C− NK cells; Trial 6): 26.5%
percentage CD107+ NK cells (NKG2A−/NKG2C− NK cells; Trial 6): 18.6%
percentage TNF+ NK cells (NKG2A−/NKG2C− NK cells; Trial 6): 4.18%
percentage of IFNG+ NK cells (NKG2A−/NKG2C− NK cells; Trial 6): 8.37%
